Measured values reported in patent publication US11046693B2, “Pyrido-phenanthroline derivatives, production and use thereof as medicaments” (Christian-Albrechts-Universitat Zu Kiel, priority 2016, dated 2021).
Where a name gives a salt, the structure may show the parent alone.

Legend:
[1] = system: 60 different human pathogenic tumor cell lines; experiment: DTP NCI-60 in vitro human tumor cell line screening (SRB); format: cell-based; conditions: mean growth inhibition of all 60 tumor cell lines, two days exposure
Protocol: For studying the pharmacological properties, the compounds of Examples 1 to 3 were tested under the “DTP NCI-60 in vitro human tumor cell line screening” of the National Cancer Institute (NCI), Bethesda, Md., United States. They were tested against 60 different human pathogenic tumor cell lines which originated from nine types of cancer (leukemia, non-small cell lung cancer, colon cancer, cancer of the CNS, melanoma, ovarian cancer, renal cancer, prostate cancer, breast cancer). To assess efficacy, the tumor cells were exposed to the compounds over two days, then growth inhibition was determined indirectly by determining the protein biomass with sulforhodamine B (SRB). Untreated cultures were used as reference. The mean-graph midpoint (MG_MIDGGI50) corresponds to a mean response rate of all tested human cell lines for the substance tested.

[2] = system: HeLa cells; experiment: PARP apoptosis assay (HeLa cells); format: cell-based; conditions: after 8 h, FIG. 3
Protocol: (§1) In addition, exemplary compound 1 was tested for apoptotic activity. The enzyme PARP (poly-ADP ribose polymerase) can be used to determine the apoptotic status of a cell; the enzyme is cleaved into a 89 kDa fragment when the cell transitions into apoptosis and can therefore serve as a apoptosis marker ([…] S H et al, Cancer Research, 1993; 53:3976-3985). […] Etoposide was chosen as reference compound and tested as well.

[3] = target: T1, human topoisomerase I (Homo sapiens, UniProt P11387); experiment: Relaxation assay (supercoiled plasmid pUC18); format: biochemical
T1 sequence (P11387 1-765): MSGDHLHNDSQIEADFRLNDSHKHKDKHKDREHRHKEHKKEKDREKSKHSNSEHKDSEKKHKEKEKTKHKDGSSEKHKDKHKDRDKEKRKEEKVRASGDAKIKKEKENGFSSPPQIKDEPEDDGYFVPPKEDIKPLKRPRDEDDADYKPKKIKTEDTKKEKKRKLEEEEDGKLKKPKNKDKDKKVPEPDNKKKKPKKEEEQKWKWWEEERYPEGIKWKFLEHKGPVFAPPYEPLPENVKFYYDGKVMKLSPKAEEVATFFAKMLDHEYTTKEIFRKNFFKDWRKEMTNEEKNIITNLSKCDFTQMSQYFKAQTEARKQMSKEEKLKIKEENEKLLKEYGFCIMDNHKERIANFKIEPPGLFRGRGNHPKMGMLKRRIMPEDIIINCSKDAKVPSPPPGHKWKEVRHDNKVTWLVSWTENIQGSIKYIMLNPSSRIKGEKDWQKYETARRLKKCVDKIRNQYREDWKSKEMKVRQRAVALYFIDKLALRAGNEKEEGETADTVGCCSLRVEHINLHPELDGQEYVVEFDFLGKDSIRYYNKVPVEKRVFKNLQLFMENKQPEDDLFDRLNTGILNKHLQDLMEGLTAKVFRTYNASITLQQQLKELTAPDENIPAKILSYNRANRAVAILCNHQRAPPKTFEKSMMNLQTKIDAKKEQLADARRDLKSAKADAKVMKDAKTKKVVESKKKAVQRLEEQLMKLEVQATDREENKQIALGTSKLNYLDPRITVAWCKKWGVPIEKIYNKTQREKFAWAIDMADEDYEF
Text: A relaxation assay can be used to determine the inhibition of human DNA topoisomerase I by a substance. Topo I is capable of transforming the supercoiled plasmid pUC18 into the relaxed form.

[4] = logD by HPLC analysis; format: physicochemical; conditions: determined using HPLC analysis
[5] = Solubility pH 7.4 by HPLC analysis; format: physicochemical; conditions: aqueous buffer; pH 7.4, HPLC analysis
[6] = target: human topoisomerase IIα (Homo sapiens, UniProt P11388); experiment: Decatenation assay (kDNA); format: biochemical; conditions: for inhibition of topo IIα: 10 μM and 100 μM, FIG. 2 lanes 4 and 5
human topoisomerase IIα, sequence (P11388 whole entry): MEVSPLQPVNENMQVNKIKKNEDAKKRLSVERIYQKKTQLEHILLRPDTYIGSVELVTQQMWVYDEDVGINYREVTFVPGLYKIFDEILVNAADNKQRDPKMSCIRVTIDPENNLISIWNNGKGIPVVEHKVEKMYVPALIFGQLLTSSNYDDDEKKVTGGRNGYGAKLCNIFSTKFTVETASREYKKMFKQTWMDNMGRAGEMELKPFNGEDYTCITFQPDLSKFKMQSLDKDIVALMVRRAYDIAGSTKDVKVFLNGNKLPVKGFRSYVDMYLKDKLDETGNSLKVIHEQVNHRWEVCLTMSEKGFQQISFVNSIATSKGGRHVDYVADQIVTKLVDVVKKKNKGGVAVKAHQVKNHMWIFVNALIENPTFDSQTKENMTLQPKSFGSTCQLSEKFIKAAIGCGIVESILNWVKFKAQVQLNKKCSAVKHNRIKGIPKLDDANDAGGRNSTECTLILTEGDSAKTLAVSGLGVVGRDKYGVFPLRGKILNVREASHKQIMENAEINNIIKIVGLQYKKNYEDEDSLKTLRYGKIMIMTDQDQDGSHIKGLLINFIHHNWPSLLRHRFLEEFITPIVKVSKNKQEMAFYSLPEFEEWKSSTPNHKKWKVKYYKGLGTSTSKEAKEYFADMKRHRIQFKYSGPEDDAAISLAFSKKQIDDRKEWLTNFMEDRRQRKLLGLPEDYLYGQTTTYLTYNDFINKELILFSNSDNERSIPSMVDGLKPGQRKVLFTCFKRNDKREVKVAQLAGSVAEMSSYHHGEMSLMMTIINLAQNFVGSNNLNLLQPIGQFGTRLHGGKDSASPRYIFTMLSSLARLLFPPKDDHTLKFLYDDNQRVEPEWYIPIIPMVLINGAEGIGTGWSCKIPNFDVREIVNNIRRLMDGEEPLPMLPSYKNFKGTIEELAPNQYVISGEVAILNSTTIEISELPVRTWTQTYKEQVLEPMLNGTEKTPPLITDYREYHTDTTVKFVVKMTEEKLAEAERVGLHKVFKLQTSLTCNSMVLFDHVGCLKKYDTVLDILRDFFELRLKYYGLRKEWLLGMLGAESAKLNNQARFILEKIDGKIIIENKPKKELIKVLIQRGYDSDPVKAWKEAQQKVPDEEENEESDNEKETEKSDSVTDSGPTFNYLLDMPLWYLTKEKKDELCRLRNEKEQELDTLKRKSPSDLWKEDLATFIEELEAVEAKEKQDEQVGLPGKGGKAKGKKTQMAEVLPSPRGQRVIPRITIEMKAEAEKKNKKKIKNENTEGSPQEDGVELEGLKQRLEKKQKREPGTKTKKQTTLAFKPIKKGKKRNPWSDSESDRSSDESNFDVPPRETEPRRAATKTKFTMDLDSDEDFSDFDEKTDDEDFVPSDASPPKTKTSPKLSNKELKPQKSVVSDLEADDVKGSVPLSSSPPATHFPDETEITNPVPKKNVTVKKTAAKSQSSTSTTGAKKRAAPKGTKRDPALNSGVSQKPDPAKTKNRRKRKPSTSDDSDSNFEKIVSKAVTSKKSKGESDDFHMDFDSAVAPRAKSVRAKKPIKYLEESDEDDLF
Text: (§2) A decatenation assay was used, which can be used to determine the inhibition of human topoisomerases II (α/β) by a substance. The protein is capable of decatenating kinetoplastid DNA (kDNA), which is present in the form of interlocked minicircles (so-called catenates), i.e. of cleaving it into individual minicircles.

[7] = target: human topoisomerase IIβ (Homo sapiens, UniProt Q02880); experiment: Decatenation assay (kDNA); format: biochemical; conditions: all three enzymes tested; read-out: IC50 topoisomerase IIβ
human topoisomerase IIβ, sequence (Q02880 whole entry): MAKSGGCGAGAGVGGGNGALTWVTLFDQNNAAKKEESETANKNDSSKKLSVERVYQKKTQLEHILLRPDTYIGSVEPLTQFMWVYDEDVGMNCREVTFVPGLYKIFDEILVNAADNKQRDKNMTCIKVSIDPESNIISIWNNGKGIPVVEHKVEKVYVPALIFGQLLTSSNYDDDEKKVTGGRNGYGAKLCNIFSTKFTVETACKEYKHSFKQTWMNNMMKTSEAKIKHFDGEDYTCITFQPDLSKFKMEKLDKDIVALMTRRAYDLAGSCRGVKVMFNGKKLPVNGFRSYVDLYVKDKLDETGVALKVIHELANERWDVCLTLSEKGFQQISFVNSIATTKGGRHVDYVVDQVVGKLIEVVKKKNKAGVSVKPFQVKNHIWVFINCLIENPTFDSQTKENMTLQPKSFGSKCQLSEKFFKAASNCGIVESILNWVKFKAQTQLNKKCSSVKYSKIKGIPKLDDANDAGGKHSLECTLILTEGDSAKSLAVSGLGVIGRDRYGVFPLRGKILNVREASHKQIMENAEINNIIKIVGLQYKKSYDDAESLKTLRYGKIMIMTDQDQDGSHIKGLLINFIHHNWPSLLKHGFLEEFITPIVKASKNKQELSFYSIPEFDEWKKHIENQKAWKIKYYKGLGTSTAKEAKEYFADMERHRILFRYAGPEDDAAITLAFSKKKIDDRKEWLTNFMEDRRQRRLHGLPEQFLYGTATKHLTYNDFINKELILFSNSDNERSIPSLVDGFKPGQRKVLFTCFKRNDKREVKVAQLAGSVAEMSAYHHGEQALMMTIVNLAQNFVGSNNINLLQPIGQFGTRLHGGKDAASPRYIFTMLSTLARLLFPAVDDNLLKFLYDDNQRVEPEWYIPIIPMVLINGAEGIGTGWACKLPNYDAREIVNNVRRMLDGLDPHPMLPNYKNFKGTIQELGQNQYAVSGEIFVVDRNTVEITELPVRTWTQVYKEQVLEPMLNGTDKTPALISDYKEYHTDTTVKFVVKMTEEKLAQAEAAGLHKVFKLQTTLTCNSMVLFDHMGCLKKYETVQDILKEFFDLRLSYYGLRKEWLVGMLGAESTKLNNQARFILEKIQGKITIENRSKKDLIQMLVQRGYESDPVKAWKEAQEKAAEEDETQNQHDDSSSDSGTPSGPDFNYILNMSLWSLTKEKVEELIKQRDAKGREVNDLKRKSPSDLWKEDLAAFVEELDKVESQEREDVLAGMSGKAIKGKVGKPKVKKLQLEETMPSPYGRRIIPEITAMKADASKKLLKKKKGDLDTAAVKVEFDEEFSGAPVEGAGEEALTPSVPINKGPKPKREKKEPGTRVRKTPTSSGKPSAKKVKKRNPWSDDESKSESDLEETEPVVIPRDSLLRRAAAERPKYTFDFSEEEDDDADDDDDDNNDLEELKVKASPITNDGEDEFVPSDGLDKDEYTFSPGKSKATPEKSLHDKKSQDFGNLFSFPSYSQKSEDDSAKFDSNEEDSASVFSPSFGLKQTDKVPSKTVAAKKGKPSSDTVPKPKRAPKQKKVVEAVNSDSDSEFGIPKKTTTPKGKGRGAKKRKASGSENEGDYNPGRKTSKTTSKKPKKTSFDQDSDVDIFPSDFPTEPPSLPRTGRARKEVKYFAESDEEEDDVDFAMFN
Text: as §2

[8] = Tolerability / MTD study, one-time intravenous application; format: in vivo, female athymic nude mice
Protocol: The maximum tolerated dose (MTD) was determined as part of an in vivo study of tolerability of P8-D6 in female athymic nude mice.
A total of 18 female athymic nude mice at ages of 7 weeks (groups 1 and 2), 8 weeks (groups 3 and 4), and 9 weeks (groups 5 and 6) were involved in the in vivo study.
To determine the tolerability of P8-D6 for a one-time intravenous application into the tail vein, the study animals of groups 2, 4, and 6 (3 animals per group) were given P8-D6 at doses of 1 mg/kg body weight, 5 mg/kg body weight, and 10 mg/kg body weight on study days 0, 7, and 14, respectively. The control animals of groups 1, 3, and 5 (3 animals per group) were administered PBS (phosphate buffered saline) (pH 7.4) at a dose of 10 mL/kg body weight on the same respective days. The study animals were monitored in a period of up to 14 days for clinical signs, changes in behavior, and survival. The body weight was measured three times a week. The first measurement was on the application day. Criteria for early abortion of the study for ethical reasons were weight loss of more than 20% from the baseline weight. A necropsy was performed on study animals that died during the study and on all other study animals at the end of the study phase. Organ samples were taken from six study animals ([…], 1 animal from group 1, 1 animal from group 2, and one animal from group 6).

[9] = system: PARP (poly-ADP ribose polymerase) cleavage; experiment: PARP assay comparing Example 1 and PZA (FIG. 4); format: cell-based
Protocol: as §1
Another PARP assay was performed to obtain a direct comparison of the pro-apoptotic effects of Example 1 (here: P8D 6) and the potent dual topoisomerase I/II inhibitor pyrazoloacridine (PZA) known from literature (FIG. 4).

[10] = system: mammary carcinoma, ovarian carcinoma, colon carcinoma, renal cell carcinoma, and non-small cell lung cancer; conditions: literature; cited from earlier work
[11] = clinical phase I; cited from earlier work
[12] = system: malignant melanoma, hepatocellular carcinoma, and mesothelioma; conditions: clinical study, with carboplatin; cited from earlier work
[13] = system: pancreatic carcinoma, ovarian carcinoma, and prostate cancer; conditions: phase II study, at least some cases; cited from earlier work
[14] = system: cancer in the head and neck, colon carcinoma, renal carcinoma, and non-small cell lung cancer; conditions: literature; cited from earlier work
[15] = system: colon carcinoma and non-small cell lung cancer; conditions: in-vivo xenograft; cited from earlier work
[16] = system: malignant melanoma, cervical cancer, and cancer of the parotid gland; conditions: clinical phase I; cited from earlier work

`CC[C@@]1(O)C(=O)OCc2c1cc1n(c2=O)Cc2cc3ccccc3nc2-1` [Camptothecin, reference compound] showed a GI50 ([1]; Homo sapiens, 48 h) of 44 nM.
In the case of `COc1cc([C@@H]2c3cc4c(cc3[C@@H](O[C@@H]3O[C@@H]5CO[C@@H](C)O[C@H]5[C@H](O)[C@H]3O)[C@H]3COC(=O)[C@H]23)OCO4)cc(OC)c1O` [Etoposide, reference compound], the GI50 ([1]; Homo sapiens, 48 h) is reported as 990 nM and the “concentration at which cleaved PARP (89 kDa band) is visible / apoptosis initiated” value [2] is reported as > 100 µM.
With `COc1cc(-c2cc3ccncc3c3nc(OCCN(C)C)c4cnccc4c23)cc(OC)c1OC` [Example 1, 6-(2-dimethylaminoethoxy)-11-(3,4,5-trimethoxyphenyl)pyrido[3,4-c][1,9]-phenanthroline Hydrochloride] the IC50 ([3]; all three enzymes tested, read-out: IC50 topoisomerase I) was < 10000 nM, the “inhibition of topoisomerase I activity” value ([3]; at 10 μM, FIG. 1) was “almost complete” and the chromatographic logD [4] was 3.7. The solubility [5] was 0.87 ± 0.03 mM, the GI50 ([1]; Homo sapiens, 48 h) was 49 nM and the “inhibition of topo IIα” value ([6]; Hydrochloride) was “exemplary inhibition of topo IIα”. For the same compound, the “inhibition of topo IIα” value ([6]; listed as exemplary compound 1, Hydrochloride) was “potently inhibit topo IIα”, the IC50 ([6]; all three enzymes tested, read-out: IC50 topoisomerase IIα) was < 10000 nM and the IC50 [7] was < 10000 nM. For the same compound, the tolerability ([8]; 1 mg/kg body weight, female athymic nude mice) was “good tolerability”, the “loss of body weight and apathy” value ([8]; 5 mg/kg body weight, female athymic nude mice) was “reversible” and the “acute lethal side effects” value ([8]; 1, 5 and 10 mg/kg body weight) was “None”. The “concentration at which cleaved PARP (89 kDa band) is visible / apoptosis initiated” value [2] was 1 µM and the “apoptotic effect in PARP assay” value ([9]; FIG. 4, direct comparison with PZA) was “extraordinarily strong apoptotic effect”.
With `COc1cc(-c2cc3ccncc3c3nc(OCCCN(C)C)c4cnccc4c23)cc(OC)c1OC` [Example 2, 6-(3-dimethylaminopropoxy)-11-(3,4,5-trimethoxyphenyl)pyrido[3,4-c][1,9]-phenanthroline] the chromatographic logD [4] was 3.6 and the GI50 ([1]; Homo sapiens, 48 h) was 52 nM.
`CN(C)CCOc1nc2c(c3ccncc13)C(c1cccc(Cl)c1)Cc1ccncc1-2` (centres unmarked) [Example 3, 11-(3-chlorophenyl)-6-(2-dimethylaminoethoxy)-11,12-dihydropyrido[3,4-c]-[1,9]phenanthroline Hydrochloride] showed a chromatographic logD [4] of 3.6, a solubility [5] of 5.28 ± 0.09 mM and a GI50 ([1]; Homo sapiens, 48 h) of 447 nM.
For `Cc1cnc(NCCCN(C)C)c2c1[nH]c1ccc3cc(O)ccc3c12` [Intoplicin], the activity against carcinomas [10] is given as “high activity”, the GI50 [1] is given as 530 nM and the hepatotoxicity [11] is given as “dose-limiting”.
Work on `CCc1c2c(nc3ccc(OC(=O)N4CCC(N5CCCCC5)CC4)cc13)-c1cc3c(c(=O)n1C2)COC(=O)[C@]3(O)CC` [Irinotecan] yielded a GI50 ([1]; Homo sapiens, 48 h) of 160 nM.
For `COc1ccc2c(c1)-c1nn(CCCN(C)C)c3ccc([N+](=O)[O-])c(c13)N2` [PZA, pyrazoloacridine], the GI50 ([1]; Homo sapiens, 48 h) is given as 200 nM, the clinical outcome [12] is given as “could not be cured but were stabilized over a few months” and the clinical outcome [13] is given as “partial remission”. The “concentration at which effective in PARP assay” value ([9]; FIG. 4) was 100 µM.
For `CN(C)CCNc1nc2cc(O)ccc2c2c1C(=O)c1ccccc1-2` [TAS-103], the efficacy in patients [14] is listed as “sufficient to keep patients stable for a period of a few months, but a cure could not be achieved”.
`COc1cc([C@@H]2c3cc4c(cc3[C@@H](O[C@@H]3O[C@@H]5CO[C@@H](c6cccs6)O[C@H]5[C@H](O)[C@H]3O)[C@H]3COC(=O)[C@H]23)OCO4)cc(OC)c1O` [Teniposide] showed a GI50 ([1]; Homo sapiens, 48 h) of 390 nM.
Compound `CC[C@@]1(O)C(=O)OCc2c1cc1n(c2=O)Cc2cc3c(CN(C)C)c(O)ccc3nc2-1` [Topotecan] has a GI50 ([1]; Homo sapiens, 48 h) of 14 nM.
In the case of `COc1cccc2c1ccc1nc3cccc(C(=O)N[C@H](C)CN(C)C)c3nc12` [XR11576], the activity in xenograft [15] is listed as “high activity” and the clinical outcome [16] is listed as “stabilization, but no remission”.
